From patent publication US20050226858A1, “Compositions containing reduced coenzyme Q10 and carotenoid” (KANEKA CORPORATION, priority 2004, published 2005)

Legend:
[1] = Antioxidative activity, method 2: DPPH spectrometry; conditions: ethanol solutions, 25 μM of each substance, after 20 minutes, calibrated with catechin
Experimental: Since the TBARS is red, method 1 cannot accurately determine absorbance of some carotenoids. Therefore, spectrometry using 1,1-dipehnyl-2-picrylhydrazyl (DPPH) was also conducted (K. Shinohara and T. Suzuki, Shokuhin-Kinou-Kenkyuho (Methods for Functional Food Analysis), 2000, 218).
In method 2, 12 ml of a 200 mM MES buffer (pH 6.0) was added to 12 ml of a 400 μM DPPH ethanol solution. Then, 12 ml ethanol was added to prepare a mixture. An ethanol solution (0.6 ml) containing an antioxidative substance was added to the mixture (0.9 ml). After 20 minutes, the absorbance of the mixture was measured at 510 nm. In this measuring system, the absorbance decreases as the antioxidative activity of the antioxidative substance increases. The antioxidative activity of the antioxidative substance was quantitatively determined using a calibration curve prepared with catechin. Namely, the minimum absorbance when DPPH radicals were completely consumed with an excess amount of catechin corresponded to 100% antioxidative activity. The maximum absorbance when DPPH radicals were not consumed at all corresponded to 0% antioxidative activity. The calibration curve was drawn from these 2 points and the antioxidative activity (%) was determined from the absorbance of the antioxidative substance.
According to the above-mentioned methods, the antioxidative activity (A) in combination of reduced coenzyme Q10 and a carotenoid, the antioxidative activity (B) of reduced coenzyme Q10 used alone, and the antioxidative activity (C) of the carotenoid used alone are measured. The antioxidative activity in combination of reduced coenzyme Q10 and the carotenoid is compared with the sum (additive effect) of the antioxidative activity of reduced coenzyme Q10 alone and the antioxidative activity of the carotenoid alone in order to investigate the synergistic effect.
In the present invention, both the following two formulae were used to correctly determine if the use in combination of reduced coenzyme Q10 and a carotenoid show synergistic effect. […]

[2] = test system: thiobarbituric acid-reactive substances (TBARS) in rat brain homogenate; assay: Antioxidative activity, method 1: TBARS level in oxidised rat brain homogenate; assay type: biochemical; conditions: ethanol solutions, 100 mM of each substance, 37° C., 27 hours
Experimental: In method 1 of measuring antioxidative activity, a level of thiobarbituric acid-reactive substances (TBARS) generated by an oxidative reaction was determined (Buege J. A. and Aust S. D., Methods Enzymol., 1978, 52: 302).
In this method, rat brain was homogenized in about 2.5 times by weight of saline to prepare a brain homogenate. The brain homogenate (80 μl), an ethanol solution (30 μl) containing antioxidative substance, Eagle's MEM medium (120 μl) , CuSO4 (240 μM), and FeCl3 (240 μM) were mixed and the mixture was maintained at 37° C. for 27 hours. Then, a 20% trichloroacetic acid (TCA) solution (0.9 ml) and a 0.67% thiobarbituric acid (TBA) solution (0.9 ml) were added and the resulting mixture was heated at 100° C. for 30 minutes. After cooling by water, the mixture was centrifuged to separate a supernatant. The absorbance of the supernatant was measured at 532 nm. […] The antioxidative activity (%) of an antioxidative substance was determined by the ratio of a decrease of the TBARS content in the presence of an antioxidative substance to the TBARS content in the absence of an antioxidative substance.
According to the above-mentioned methods, the antioxidative activity (A) in combination of reduced coenzyme Q10 and a carotenoid, the antioxidative activity (B) of reduced coenzyme Q10 used alone, and the antioxidative activity (C) of the carotenoid used alone are measured. […]

| SMILES | Antioxidative Activity (%) (Inhibition Ratio of Oxidation) [1] | Antioxidative Activity (%) (Inhibition Ratio of Oxidation) [2] |
| --- | --- | --- |
| CC(C)=CCC/C(C)=C/C=C/C(C)=C/C=C/C(C)=C/C=C/C=C(C)/C=C/C=C(C)/C=C/C=C(\C)CCC=C(C)C [Lycopene, lycopene] | 0.9% |  |
| COc1c(O)c(C)c(C/C=C(\C)CC/C=C(\C)CC/C=C(\C)CC/C=C(\C)CC/C=C(\C)CC/C=C(\C)CC/C=C(\C)CC/C=C(\C)CC/C=C(\C)CCC=C(C)C)c(O)c1OC [Reduced coenzyme Q10, reduced coenzyme Q10] | 10.3% | 10.9% |
| CC1=C(/C=C/C(C)=C/C=C/C(C)=C/C=C/C=C(C)/C=C/C=C(C)/C=C/C2=C(C)CCCC2(C)C)C(C)(C)CCC1 [β-Carotene, β-carotene] | 8.8% |  |
| CC1=C(/C=C/C(C)=C/C=C/C(C)=C/C=C/C=C(C)/C=C/C=C(C)/C=C/C2=C(C)C(=O)[C@@H](O)CC2(C)C)C(C)(C)C[C@H](O)C1=O [Astaxanthin, astaxanthin] |  | 21.6% |
